Assay results reported in ChEMBL document CHEMBL4665706, “Synthesis of a Unique Psammaplysin F Library and Functional Evaluation in Prostate Cancer Cells by Multiparametric Quantitative Single Cell Imaging” (J Nat Prod, 2020).
Calls of active or inactive are those of the source. No cut-off for these calls is given here.

How the values were obtained:
LNCaP [1] = assay: Cell cycle arrest in human LNCaP cells assessed as accumulation of cells at M phase at 20 to 50 uM after 24 hrs by DAPI staining-based fluorescence assay; assay type: functional; details: dose microM 20-50, time 24.0 hrs
LNCaP [2] = assay: Cell cycle arrest in human LNCaP cells assessed as accumulation of cells at G2 phase at 20 to 50 uM after 24 hrs by DAPI staining-based fluorescence assay; assay type: functional; details: dose microM 20-50, time 24.0 hrs
LNCaP [3] = assay: Reduction in mitochondrial membrane potential in human LNCaP cells assessed as reduction in tubular structure at 20 to 50 uM after 24 hrs by Hoechst 33342/MTG staining-based by fluorescence assay; assay type: functional, cell-based; details: dose microM 20-50, time 24.0 hrs
LNCaP [4] = assay: Cell cycle arrest in human LNCaP cells assessed as cell death at 20 to 50 uM after 24 hrs in presence of 6AA by DAPI staining-based fluorescence assay; assay type: functional; details: dose microM 20-50, time 24.0 hrs
LNCaP [5] = assay: Cell cycle arrest in human LNCaP cells assessed as cell death at 20 to 50 uM after 24 hrs in presence of VINB by DAPI staining-based fluorescence assay; assay type: functional; details: dose microM 20-50, time 24.0 hrs
LNCaP [6] = assay: Reduction in mitochondrial membrane potential in human LNCaP cells assessed as mitochondrial morphological change at 50 uM after 24 hrs by Hoechst 33342/MTG staining-based by fluorescence assay; assay type: functional, cell-based

Structure (SMILES) | Activity (LNCaP [1]) | Activity (LNCaP [2]) | Activity (LNCaP [3]) | Activity (LNCaP [4]) | Activity (LNCaP [5]) | Activity (LNCaP [6])
C=CCNC(=O)N(C)CCc1cc(Br)c(OCCCNC(=O)C2=NO[C@]3(CC(Br)=C(OC)C(Br)=CO3)[C@@H]2O)c(Br)c1 | Active | Active | Active |  |  | 
COC1=C(Br)C[C@@]2(OC=C1Br)ON=C(C(=O)NCCCOc1c(Br)cc(CCN(C)C(=O)Nc3cccc(OC)c3OC)cc1Br)[C@H]2O | inactive | inactive |  |  |  | 
COC1=C(Br)C[C@@]2(OC=C1Br)ON=C(C(=O)NCCCOc1c(Br)cc(CCN(C)C(=O)NCc3ccc(OC)cc3)cc1Br)[C@H]2O | inactive | inactive |  |  |  | 
COC1=C(Br)C[C@@]2(OC=C1Br)ON=C(C(=O)NCCCOc1c(Br)cc(CCN(C)C(=O)NC3CCCC3)cc1Br)[C@H]2O | Active | Active |  |  |  | 
COC1=C(Br)C[C@@]2(OC=C1Br)ON=C(C(=O)NCCCOc1c(Br)cc(CCN(C)C(=O)NCCc3ccc(F)cc3)cc1Br)[C@H]2O | Active | Active |  |  |  | 
COC1=C(Br)C[C@@]2(OC=C1Br)ON=C(C(=O)NCCCOc1c(Br)cc(CCN(C)C(=O)C(C)(C)C)cc1Br)[C@H]2O | Active | Active | Active | Active | Active | 
COC1=C(Br)C[C@@]2(OC=C1Br)ON=C(C(=O)NCCCOc1c(Br)cc(CCN(C)C(=O)C(C)(C)C)cc1Br)[C@H]2OC(=O)C(C)(C)C | Active | Active | Active |  |  | 
CNCCc1cc(Br)c(OCCCNC(=O)C2=NO[C@]3(CC(Br)=C(OC)C(Br)=CO3)[C@@H]2O)c(Br)c1 | Active | Active | Active |  |  | Active
CCCCNC(=O)N(C)CCc1cc(Br)c(OCCCNC(=O)C2=NO[C@]3(CC(Br)=C(OC)C(Br)=CO3)[C@@H]2O)c(Br)c1 | Active | Active | Active | Active | Active | 
COC1=C(Br)C[C@@]2(OC=C1Br)ON=C(C(=O)NCCCOc1c(Br)cc(CCN(C)C(=O)Nc3ccc(C(C)=O)cc3)cc1Br)[C@H]2O | Active | Active |  |  |  | 
COC1=C(Br)C[C@@]2(OC=C1Br)ON=C(C(=O)NCCCOc1c(Br)cc(CCN(C)C(=O)Nc3ccccc3)cc1Br)[C@H]2OC(=O)c1ccccc1 | inactive | inactive |  |  |  | 
